According to ChEMBL document CHEMBL5131422, “Neuroprotective evaluation of novel substituted 1,3,4-oxadiazole and aroylhydrazone derivatives” (Bioorg Med Chem Lett, 2022):

Tests used:
Brain [1] = assay: Neuroprotective activity against 6-OHDA-induced oxidative stress in rat brain synaptosomes assessed as GSH level at 40 uM relative to control; type: functional, subcellular; conditions: Synaptosome
[2] = Toxicity in rat brain synaptosomes assessed as effect on reduced glutathione level at 40 uM measured after 1 hr relative to control; type: subcellular, Synaptosome; conditions: in vitro
[3] = Toxicity in rat brain synaptosomes assessed as reduction in cell viability at 40 uM measured after 1 hr by MTT assay relative to control; type: subcellular, Synaptosome
Brain [4] = assay: Neuroprotective activity against 6-OHDA-induced oxidative stress in rat brain synaptosomes assessed as cell viability at 40 uM by MTT assay relative to control; type: functional, subcellular; conditions: Synaptosome
[5] = biological target: T1, Amine oxidase [flavin-containing] A (Homo sapiens, UniProt P21397); assay: Inhibition of MAOA (unknown origin)
T1 sequence (P21397 whole entry): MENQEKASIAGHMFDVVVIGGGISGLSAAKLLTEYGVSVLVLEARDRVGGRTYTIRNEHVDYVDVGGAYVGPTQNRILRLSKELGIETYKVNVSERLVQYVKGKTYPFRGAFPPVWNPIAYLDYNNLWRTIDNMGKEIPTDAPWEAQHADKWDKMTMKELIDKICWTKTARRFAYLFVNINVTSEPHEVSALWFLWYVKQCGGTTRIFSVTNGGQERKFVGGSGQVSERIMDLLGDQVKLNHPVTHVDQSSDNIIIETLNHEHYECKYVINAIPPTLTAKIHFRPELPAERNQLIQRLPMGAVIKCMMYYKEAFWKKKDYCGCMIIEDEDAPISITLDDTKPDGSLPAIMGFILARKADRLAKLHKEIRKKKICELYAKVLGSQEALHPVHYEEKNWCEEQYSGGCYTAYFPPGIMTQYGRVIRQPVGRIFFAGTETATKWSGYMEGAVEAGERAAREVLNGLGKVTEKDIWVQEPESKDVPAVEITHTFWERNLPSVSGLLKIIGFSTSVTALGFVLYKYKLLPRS

inhibition (INH) [5]	SMILES	Activity (Brain [1]) [%]	Activity [2]	Activity [3]	Activity (Brain [4]) [%]
	COc1ccc2[nH]cc(/C=N\NC(=O)Cc3c[nH]c4ccccc34)c2c1	60	25%	20%	56
	COc1ccc2[nH]cc(/C=N\NC(=O)c3snnc3C)c2c1	60	25%	15%	67
Active	Clc1ccc(-c2nnc(-c3ccccc3)o2)cc1	60	Non-Toxic	Non-Toxic	66
	COc1ccc2[nH]cc(/C=N\NC(=O)c3ccc(Cl)cc3)c2c1	60	25%	20%	67
	COc1ccc2[nH]cc(/C=N\NC(=O)c3ccoc3)c2c1	70	25%	20%	67
	COc1ccc(C(=O)N/N=C/c2ccc(Cl)cc2Cl)cc1OC	70	25%	20%	56
Active	c1ccc(-c2nnc(-c3c[nH]c4ccccc34)o2)cc1	70	Non-Toxic	Non-Toxic	56
	COc1ccc2[nH]cc(/C=N\NC(=O)c3c[nH]c4ccccc34)c2c1	70	25%	20%	56
	COc1ccc(C(=O)N/N=C/c2ccc(Cl)cc2Cl)cc1O	70	25%	20%	56
